Assay results from patent US10335503B2, “Compound that specifically binds to AMPA receptor” (Public University Corporation Yokohama City University, priority 2015, dated 2019).

How the values were obtained:
Details in all cases: K-2 at 1 × 10^−7 mol/L
α1A-Adrenergic = α1A-Adrenergic (Homo sapiens, UniProt P35348); assay: Receptor binding panel: α1A-Adrenergic
α2B-Adrenergic = α2B-Adrenergic (Homo sapiens, UniProt P18089); assay: Receptor binding panel: α2B-Adrenergic
α2C-Adrenergic = α2C-Adrenergic (Homo sapiens, UniProt P18825); assay: Receptor binding panel: α2C-Adrenergic
Chain of α2C-Adrenergic (P18825 whole entry): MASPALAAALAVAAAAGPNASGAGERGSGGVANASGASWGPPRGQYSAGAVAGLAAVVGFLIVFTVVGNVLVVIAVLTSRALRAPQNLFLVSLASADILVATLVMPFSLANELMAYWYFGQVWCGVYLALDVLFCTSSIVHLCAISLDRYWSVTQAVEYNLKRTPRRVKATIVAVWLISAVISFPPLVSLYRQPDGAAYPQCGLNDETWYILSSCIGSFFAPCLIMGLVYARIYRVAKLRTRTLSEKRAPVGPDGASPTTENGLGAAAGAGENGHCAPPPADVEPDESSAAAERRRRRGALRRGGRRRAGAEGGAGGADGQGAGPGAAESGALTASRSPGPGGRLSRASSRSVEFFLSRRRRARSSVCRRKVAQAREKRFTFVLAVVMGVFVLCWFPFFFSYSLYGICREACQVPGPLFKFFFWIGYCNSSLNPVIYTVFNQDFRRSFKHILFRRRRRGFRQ

β1-Adrenergic = β1-Adrenergic (Homo sapiens, UniProt P08588); assay: Receptor binding panel: β1-Adrenergic
Chain of β1-Adrenergic (P08588 whole entry): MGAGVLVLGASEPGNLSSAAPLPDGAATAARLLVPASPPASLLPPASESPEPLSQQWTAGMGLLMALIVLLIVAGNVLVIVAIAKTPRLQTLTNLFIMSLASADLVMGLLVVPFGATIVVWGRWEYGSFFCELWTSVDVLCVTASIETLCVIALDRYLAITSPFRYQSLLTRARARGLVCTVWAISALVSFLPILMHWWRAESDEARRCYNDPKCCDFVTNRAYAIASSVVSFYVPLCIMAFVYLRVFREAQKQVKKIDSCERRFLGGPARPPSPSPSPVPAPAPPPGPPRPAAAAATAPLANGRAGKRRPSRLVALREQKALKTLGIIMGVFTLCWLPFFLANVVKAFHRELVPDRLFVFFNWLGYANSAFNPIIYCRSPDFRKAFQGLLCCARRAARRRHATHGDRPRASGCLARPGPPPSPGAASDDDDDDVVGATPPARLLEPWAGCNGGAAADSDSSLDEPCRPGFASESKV

β2-Adrenergic = β2-Adrenergic (Homo sapiens, UniProt P07550); assay: Receptor binding panel: β2-Adrenergic
Chain of β2-Adrenergic (P07550 whole entry): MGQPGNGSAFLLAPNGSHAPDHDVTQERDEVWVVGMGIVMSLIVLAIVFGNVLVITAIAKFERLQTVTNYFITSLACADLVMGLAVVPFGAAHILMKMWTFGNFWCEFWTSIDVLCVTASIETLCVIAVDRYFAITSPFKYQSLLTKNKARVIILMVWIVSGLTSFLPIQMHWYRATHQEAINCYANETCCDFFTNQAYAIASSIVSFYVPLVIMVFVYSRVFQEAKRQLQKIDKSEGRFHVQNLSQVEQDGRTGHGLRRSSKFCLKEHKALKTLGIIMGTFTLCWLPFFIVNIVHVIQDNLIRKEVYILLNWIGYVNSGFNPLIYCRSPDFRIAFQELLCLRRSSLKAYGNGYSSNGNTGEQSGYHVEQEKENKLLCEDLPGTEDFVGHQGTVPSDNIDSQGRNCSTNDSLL

Angiotensin AT2 = Angiotensin AT2 (Homo sapiens, UniProt P50052); assay: Receptor binding panel: Angiotensin AT2
Chain of Angiotensin AT2 (P50052 whole entry): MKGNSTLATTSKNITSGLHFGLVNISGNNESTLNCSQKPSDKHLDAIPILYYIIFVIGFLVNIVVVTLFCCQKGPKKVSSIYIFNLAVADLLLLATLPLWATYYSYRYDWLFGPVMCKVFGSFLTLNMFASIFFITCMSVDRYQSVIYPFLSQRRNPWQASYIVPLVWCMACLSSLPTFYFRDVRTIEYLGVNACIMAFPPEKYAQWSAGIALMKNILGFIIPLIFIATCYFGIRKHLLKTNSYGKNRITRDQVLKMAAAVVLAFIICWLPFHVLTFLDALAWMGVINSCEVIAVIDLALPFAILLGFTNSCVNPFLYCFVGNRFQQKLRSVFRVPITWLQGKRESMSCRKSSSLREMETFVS

CRF1 = target: T1, CRF1 (Homo sapiens, UniProt P34998); assay: Receptor binding panel: CRF1
T1 sequence (P34998 24-415): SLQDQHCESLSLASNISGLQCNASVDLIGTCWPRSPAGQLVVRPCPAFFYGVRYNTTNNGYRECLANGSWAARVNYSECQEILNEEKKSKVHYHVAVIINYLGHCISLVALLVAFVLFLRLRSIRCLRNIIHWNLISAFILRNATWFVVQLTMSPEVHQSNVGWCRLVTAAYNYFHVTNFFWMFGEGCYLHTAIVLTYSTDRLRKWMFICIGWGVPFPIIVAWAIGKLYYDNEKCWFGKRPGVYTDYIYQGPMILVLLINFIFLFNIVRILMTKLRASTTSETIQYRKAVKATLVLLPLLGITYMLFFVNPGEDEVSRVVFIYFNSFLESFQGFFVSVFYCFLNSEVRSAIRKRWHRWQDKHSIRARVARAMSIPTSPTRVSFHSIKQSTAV

Endothelin ETB = Endothelin ETB (Homo sapiens, UniProt P24530); assay: Receptor binding panel: Endothelin ETB
GABA A (BZ central) = assay: Receptor binding panel: GABA A (BZ central)
GABA B = GABA B (Homo sapiens, UniProt Q9UBS5); assay: Receptor binding panel: GABA B
[1] = tested on: Glutamate (NMDA glycine site); assay: Receptor binding panel: Glutamate (NMDA glycine site)
Histamine H2 = Histamine H2 (Homo sapiens, UniProt P25021); assay: Receptor binding panel: Histamine H2
Chain of Histamine H2 (P25021 whole entry): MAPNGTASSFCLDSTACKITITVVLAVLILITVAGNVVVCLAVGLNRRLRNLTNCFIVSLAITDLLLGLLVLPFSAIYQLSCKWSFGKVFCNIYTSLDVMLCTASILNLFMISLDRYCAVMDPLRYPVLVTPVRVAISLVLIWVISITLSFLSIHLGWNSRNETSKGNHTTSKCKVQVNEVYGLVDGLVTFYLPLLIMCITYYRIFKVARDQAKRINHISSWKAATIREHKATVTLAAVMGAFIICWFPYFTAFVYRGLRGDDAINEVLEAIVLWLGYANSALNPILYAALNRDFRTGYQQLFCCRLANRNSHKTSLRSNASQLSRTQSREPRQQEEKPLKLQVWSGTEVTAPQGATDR

Histamine H3 = Histamine H3 (Homo sapiens, UniProt Q9Y5N1); assay: Receptor binding panel: Histamine H3
Chain of Histamine H3 (Q9Y5N1 whole entry): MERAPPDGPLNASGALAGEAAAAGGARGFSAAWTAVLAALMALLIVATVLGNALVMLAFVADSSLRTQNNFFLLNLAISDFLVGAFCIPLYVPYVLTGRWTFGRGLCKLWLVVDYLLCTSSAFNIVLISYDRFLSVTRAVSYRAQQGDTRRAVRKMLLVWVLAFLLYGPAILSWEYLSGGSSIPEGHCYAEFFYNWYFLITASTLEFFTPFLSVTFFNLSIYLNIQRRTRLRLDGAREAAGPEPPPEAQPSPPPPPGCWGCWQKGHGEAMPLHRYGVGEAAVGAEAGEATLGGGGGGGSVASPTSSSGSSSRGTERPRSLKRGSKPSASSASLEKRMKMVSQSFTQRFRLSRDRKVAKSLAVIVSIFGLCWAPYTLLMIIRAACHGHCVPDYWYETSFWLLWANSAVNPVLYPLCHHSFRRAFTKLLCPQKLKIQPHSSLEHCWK

K Channel KATP = assay: Receptor binding panel: K Channel KATP
Melatonin MT1 = Melatonin MT1 (Homo sapiens, UniProt P48039); assay: Receptor binding panel: Melatonin MT1
Chain of Melatonin MT1 (P48039 whole entry): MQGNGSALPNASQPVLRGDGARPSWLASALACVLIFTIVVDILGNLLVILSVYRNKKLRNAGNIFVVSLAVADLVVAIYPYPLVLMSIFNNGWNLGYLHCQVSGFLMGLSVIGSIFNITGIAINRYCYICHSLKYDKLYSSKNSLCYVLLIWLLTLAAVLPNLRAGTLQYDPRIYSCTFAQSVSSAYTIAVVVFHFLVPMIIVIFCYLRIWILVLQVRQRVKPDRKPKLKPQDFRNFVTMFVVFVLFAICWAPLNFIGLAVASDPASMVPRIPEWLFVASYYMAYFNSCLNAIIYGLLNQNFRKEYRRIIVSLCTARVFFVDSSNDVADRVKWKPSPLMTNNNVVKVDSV

Neurokinin NK3 = Neurokinin NK3 (Homo sapiens, UniProt P29371); assay: Receptor binding panel: Neurokinin NK3
Nicotinic = assay: Receptor binding panel: Nicotinic; design: species or system Human
Opiate μ = Opiate μ (Homo sapiens, UniProt P35372); assay: Receptor binding panel: Opiate μ
Chain of Opiate μ (P35372 whole entry): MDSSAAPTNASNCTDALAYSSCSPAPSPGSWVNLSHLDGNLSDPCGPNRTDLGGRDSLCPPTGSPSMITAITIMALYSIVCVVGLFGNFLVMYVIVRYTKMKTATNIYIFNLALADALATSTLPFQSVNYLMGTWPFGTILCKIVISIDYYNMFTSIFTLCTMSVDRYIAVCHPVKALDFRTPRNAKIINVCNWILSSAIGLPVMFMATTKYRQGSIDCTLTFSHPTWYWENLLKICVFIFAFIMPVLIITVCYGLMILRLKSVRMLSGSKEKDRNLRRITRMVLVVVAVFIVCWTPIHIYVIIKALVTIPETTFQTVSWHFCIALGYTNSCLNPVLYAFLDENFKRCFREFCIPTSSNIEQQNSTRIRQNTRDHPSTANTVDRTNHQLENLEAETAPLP

Serotonin 5HT3 = Serotonin 5HT3 (Homo sapiens, UniProt P46098); assay: Receptor binding panel: Serotonin 5HT3
Serotonin transporter = Serotonin transporter (Homo sapiens, UniProt P31645); assay: Receptor binding panel: Serotonin transporter
Sigma σ1 = Sigma σ1 (Homo sapiens, UniProt Q99720); assay: Receptor binding panel: Sigma σ1
Chain of Sigma σ1 (Q99720 whole entry): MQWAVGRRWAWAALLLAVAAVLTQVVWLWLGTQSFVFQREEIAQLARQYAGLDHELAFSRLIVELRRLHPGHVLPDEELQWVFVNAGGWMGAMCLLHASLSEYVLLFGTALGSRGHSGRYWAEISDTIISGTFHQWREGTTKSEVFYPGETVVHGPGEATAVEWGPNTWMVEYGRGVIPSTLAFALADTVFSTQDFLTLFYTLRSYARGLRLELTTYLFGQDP

Vasopressin V1 = Vasopressin V1 (Homo sapiens, UniProt P37288); assay: Receptor binding panel: Vasopressin V1
Chain of Vasopressin V1 (P37288 whole entry): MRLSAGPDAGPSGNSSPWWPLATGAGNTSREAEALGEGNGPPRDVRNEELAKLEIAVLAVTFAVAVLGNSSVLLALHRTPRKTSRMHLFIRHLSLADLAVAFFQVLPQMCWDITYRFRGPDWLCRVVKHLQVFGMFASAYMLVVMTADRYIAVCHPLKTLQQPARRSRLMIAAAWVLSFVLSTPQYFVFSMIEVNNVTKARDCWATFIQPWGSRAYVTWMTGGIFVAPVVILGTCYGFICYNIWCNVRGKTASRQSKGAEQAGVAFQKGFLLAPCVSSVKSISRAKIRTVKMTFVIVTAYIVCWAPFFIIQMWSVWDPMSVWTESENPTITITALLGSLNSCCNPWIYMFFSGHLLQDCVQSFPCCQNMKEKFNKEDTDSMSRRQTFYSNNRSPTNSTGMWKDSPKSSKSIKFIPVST

Vasopressin V1B = Vasopressin V1B (Homo sapiens, UniProt P47901); assay: Receptor binding panel: Vasopressin V1B

Chain of α1A-Adrenergic (P35348 whole entry): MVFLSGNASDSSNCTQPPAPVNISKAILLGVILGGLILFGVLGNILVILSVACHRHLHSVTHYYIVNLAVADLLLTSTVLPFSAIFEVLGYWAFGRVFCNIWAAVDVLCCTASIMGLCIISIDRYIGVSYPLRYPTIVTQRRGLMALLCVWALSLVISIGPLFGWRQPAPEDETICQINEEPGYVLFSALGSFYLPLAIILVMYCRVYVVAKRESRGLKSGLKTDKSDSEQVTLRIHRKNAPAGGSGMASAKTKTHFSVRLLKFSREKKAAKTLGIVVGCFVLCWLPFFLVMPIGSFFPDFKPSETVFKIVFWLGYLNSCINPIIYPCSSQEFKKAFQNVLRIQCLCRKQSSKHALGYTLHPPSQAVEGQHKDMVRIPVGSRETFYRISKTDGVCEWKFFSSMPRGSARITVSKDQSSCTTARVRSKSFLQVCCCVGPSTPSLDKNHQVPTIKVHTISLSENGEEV
Chain of α2B-Adrenergic (P18089 whole entry): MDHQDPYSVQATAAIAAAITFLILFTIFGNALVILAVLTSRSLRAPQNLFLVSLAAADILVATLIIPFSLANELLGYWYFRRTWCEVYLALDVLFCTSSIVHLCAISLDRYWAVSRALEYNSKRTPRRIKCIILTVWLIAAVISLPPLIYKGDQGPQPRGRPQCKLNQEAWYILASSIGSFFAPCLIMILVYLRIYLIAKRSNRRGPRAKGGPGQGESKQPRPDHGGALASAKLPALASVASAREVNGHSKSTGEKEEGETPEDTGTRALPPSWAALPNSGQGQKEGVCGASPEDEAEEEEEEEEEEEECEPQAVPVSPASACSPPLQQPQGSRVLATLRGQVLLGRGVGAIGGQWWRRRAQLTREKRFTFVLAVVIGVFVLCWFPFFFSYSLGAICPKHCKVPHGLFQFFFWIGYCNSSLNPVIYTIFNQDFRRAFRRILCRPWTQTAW

Structure (SMILES): CN(CCSc1cc(F)c(OCC(N)=O)c(F)c1)S(=O)(=O)c1ccccc1 [K-2, {4-[2-(benzenesulfonyl-methyl-amino)-ethylsulfanil]-2,6-difluoro-phenoxy}-acetamide]
- inhibition at 0.1 µM (α1A-Adrenergic): 0.21%
- inhibition at 0.1 µM (α2B-Adrenergic): 5.83%
- inhibition at 0.1 µM (α2C-Adrenergic): 5.82%
- inhibition at 0.1 µM (β1-Adrenergic): 0.82%
- inhibition at 0.1 µM (β2-Adrenergic): 3.39%
- inhibition at 0.1 µM (Angiotensin AT2): 1.05%
- inhibition at 0.1 µM (CRF1): 1.37%
- inhibition at 0.1 µM (Endothelin ETB): 0%
- Inhibition (%) (GABA A (BZ central)): 1.54%
- inhibition at 0.1 µM (GABA B): 1.9%
- Inhibition (%) [1]: 0.64%
- inhibition at 0.1 µM (Histamine H2): 0.79%
- inhibition at 0.1 µM (Histamine H3): 0%
- Inhibition (%) (K Channel KATP): 5.71%
- inhibition at 0.1 µM (Melatonin MT1): 0.11%
- inhibition at 0.1 µM (Neurokinin NK3): 0%
- Inhibition (%) (Nicotinic): 7.17%
- inhibition at 0.1 µM (Opiate μ): 8.78%
- inhibition at 0.1 µM (Serotonin 5HT3): 1.57%
- inhibition at 0.1 µM (Serotonin transporter): 0.17%
- inhibition at 0.1 µM (Sigma σ1): 2.88%
- inhibition at 0.1 µM (Vasopressin V1): 4.76%
- inhibition at 0.1 µM (Vasopressin V1B): 1.48%
